Test results published in patent publication USRE50082E1, “(5,6-dihydro)pyrimido[4,5-e]indolizines” (NETHERLANDS TRANSLATIONAL RESEARCH CENTER B.V., priority 2014, dated 2024).

system: MOLT-4 cancer cell line; experiment: Cell proliferation assay, MOLT-4 cancer cell line (ATPlite); assay type: cell-based; conditions: Homo sapiens, MOLT-4; 72 hours incubation, ATPlite 1Step; read-out: IC50 MOLT-4 cell proliferation;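 also: luminescence read-out, percent growth versus compound-free DMSO wells as maximum growth, start-of-incubation signal separating growth from cell death, IC50 from logistic curve fit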
Protocol: 5 μL of compound solution was added and the plates were incubated for an additional 72 hours after which 25 μL of ATPlite 1Step™ (PerkinElmer, Groningen, The Netherlands) solution was added to each well. Luminescence was recorded on an Envision multimode reader. The cell signal at the start of incubation was recorded separately in order to distinguish between cell population growth and cell death. In addition, maximum growth was determined by incubation of a duplicate without compound in the presence of 0.4% DMSO. Percentage growth was used as the main y-axis signal. IC50s were fitted by non-linear regression using IDBS XLfit™5 using a 4-parameter logistic curve, yielding a maximum signal, minimum signal, hill-parameter and IC50.

Row | IC50 | SMILES
1 | 50 to 150 nM | CCc1cccc(CC)c1NC(=O)c1ccn2c1CCc1cnc(Nc3ccc(OCCOC)cc3OC)nc1-2 [Example 136, N-(2,6-diethylphenyl)-2-[2-methoxy-4-(2-methoxyethoxy)anilino]-5,6-dihydropyrimido[4,5-e]indolizine-7-carboxamide]
2 | < 50 nM | COCCOCCOCCn1nc(C)c(NC(=O)c2ccn3c2CCc2cnc(Nc4ccc(OCCOC)cc4OC)nc2-3)c1C [Example 137, N-[1-[2-[2-(2-methoxyethoxy)ethoxy]ethyl]-3,5-dimethyl-pyrazol-4-yl]-2-[2-methoxy-4-(2-methoxyethoxy)anilino]-5,6-dihydropyrimido[4,5-e]indolizine-7-carboxamide]
3 | 50 to 150 nM | COc1cc(N2CCN(C)CC2)ccc1Nc1ncc2c(n1)-n1ccc(C(=O)Nc3c(C)nn(CC4CCO4)c3C)c1CC2 (centres unmarked) [Example 140, N-[3,5-dimethyl-1-(oxetan-2-ylmethyl)pyrazol-4-yl]-2-[2-methoxy-4-(4-methylpiperazin-1-yl)anilino]-5,6-dihydropyrimido[4,5-e]indolizine-7-carboxamide]
4 | 50 to 150 nM | CCc1nn(C2COC2)c(CC)c1NC(=O)c1ccn2c1CCc1cnc(Nc3ccc(N4CCN(C)CC4)cc3OC)nc1-2 [Example 142, N-[3,5-diethyl-1-(oxetan-3-yl)pyrazol-4-yl]-2-[2-methoxy-4-(4-methylpiperazin-1-yl)anilino]-5,6-dihydropyrimido[4,5-e]indolizine-7-carboxamide]
5 | < 50 nM | Cc1cccc(C)c1NC(=O)c1ccn2c1CCc1cnc(Nc3ccc(N4CCN(C)CC4)cc3OC(F)F)nc1-2 [Example 144, N-(2,6-dimethyl-phenyl)-2-[2-(difluoromethoxy)-4-(4-methylpiperazin-1-yl)anilino]-5,6-dihydropyrimido[4,5-e]indolizine-7-carboxamide]
6 | < 50 nM | COc1cc(N2CCN(C(=O)NC(C)C)CC2)ccc1Nc1ncc2c(n1)-n1ccc(C(=O)Nc3c(C)cccc3C)c1CC2 [Example 145, N-(2,6-dimethylphenyl)-2-[4-[4-(isopropylcarbamoyl)piperazin-1-yl]-2-methoxy-anilino]-5,6-dihydropyrimido[4,5-e]indolizine-7-carboxamide]

The next lines start with the compound.

Row | SMILES | IC50
7 | COc1cc(C(=O)N[C@@H]2CCNC[C@@H]2F)ccc1Nc1ncc2c(n1)-n1ccc(C(=O)Nc3c(C)cccc3C)c1CC2 [Example 118, N-(2,6-dimethylphenyl)-2-[4-[[(3S,4R)-3-fluoro-4-piperidyl]carbamoyl]-2-methoxy-anilino]-5,6-dihydropyrimido[4,5-e]indolizine-7-carboxamide] | < 50 nM
8 | COc1cc(C(=O)NC(C)C)ccc1Nc1ncc2c(n1)-n1ccc(C(=O)Nc3c(C)cccc3C)c1CC2 [Example 120, N-(2,6-dimethylphenyl)-2-[4-(isopropylcarbamoyl)-2-methoxy-anilino]-5,6-dihydropyrimido[4,5-e]indolizine-7-carboxamide] | < 50 nM
9 | COc1cc(C(=O)N2CCOCC2)ccc1Nc1ncc2c(n1)-n1ccc(C(=O)Nc3c(C)cccc3C)c1CC2 [Example 122, N-(2,6-dimethylphenyl)-2-[2-methoxy-4-(morpholine-4-carbonyl)anilino]-5,6-dihydropyrimido[4,5-e]indolizine-7-carboxamide] | < 50 nM
10 | CCN1CCCN(C(=O)c2ccc(Nc3ncc4c(n3)-n3ccc(C(=O)Nc5c(C)cccc5C)c3CC4)c(OC)c2)CC1 [Example 124, N-(2,6-dimethylphenyl)-2-[4-(4-ethyl-1,4-diazepane-1-carbonyl)-2-methoxy-anilino]-5,6-dihydropyrimido[4,5-e]indolizine-7-carboxamide] | < 50 nM
11 | COc1cc(C(=O)NC2CC2)ccc1Nc1ncc2c(n1)-n1ccc(C(=O)Nc3c(C)cccc3C)c1CC2 [Example 126, 2-[4-(cyclopropylcarbamoyl)-2-methoxy-anilino]-N-(2,6-dimethylphenyl)-5,6-dihydropyrimido[4,5-e]indolizine-7-carboxamide] | < 50 nM
12 | COCCNC(=O)c1ccc(Nc2ncc3c(n2)-n2ccc(C(=O)Nc4c(C)cccc4C)c2CC3)c(OC)c1 [Example 127, N-(2,6-dimethylphenyl)-2-[2-methoxy-4-(2-methoxyethylcarbamoyl)anilino]-5,6-dihydropyrimido[4,5-e]indolizine-7-carboxamide] | < 50 nM
13 | COc1cc(C(=O)NCCN2CCCCC2)ccc1Nc1ncc2c(n1)-n1ccc(C(=O)Nc3c(C)cccc3C)c1CC2 [Example 128, N-(2,6-dimethylphenyl)-2-[2-methoxy-4-[2-(1-piperidyl)ethylcarbamoyl]anilino]-5,6-dihydropyrimido[4,5-e]indolizine-7-carboxamide] | 50 to 150 nM
14 | COc1cc(C(=O)N2CCC(C)(C#N)CC2)ccc1Nc1ncc2c(n1)-n1ccc(C(=O)Nc3c(C)cccc3C)c1CC2 [Example 129, 2-[4-(4-Cyano-4-methyl-piperidine-1-carbonyl)-2-methoxy-anilino]-N-(2,6-dimethylphenyl)-5,6-dihydropyrimido[4,5-e]indolizine-7-carboxamide] | < 50 nM
15 | COc1cc(N2CCN(C(=O)C3(C)CNC3)CC2)ccc1Nc1ncc2c(n1)-n1ccc(C(=O)Nc3c(C)cccc3C)c1CC2 [Example 130, N-(2,6-dimethylphenyl)-2-[2-methoxy-4-[4-(3-methylazetidine-3-carbonyl)piperazin-1-yl]anilino]-5,6-dihydropyrimido[4,5-e]indolizine-7-carboxamide] | < 50 nM
16 | COCCn1nc(C)c(NC(=O)c2ccn3c2CCc2cnc(Nc4ccc(N5CCN(C(C)=O)CC5)cc4OC)nc2-3)c1C [Example 131, 2-[4-(4-Acetylpiperazin-1-yl)-2-methoxy-anilino]-N-[1-(2-methoxyethyl)-3,5-dimethyl-pyrazol-4-yl]-5,6-dihydropyrimido[4,5-e]indolizine-7-carboxamide] | 50 to 150 nM
17 | COCCn1nc(C)c(NC(=O)c2ccn3c2CCc2cnc(Nc4ccc(N5CCN(C(=O)C6CC(F)C6)CC5)cc4OC)nc2-3)c1C (centres unmarked) [Example 132, 2-[4-[4-(3-Fluorocyclobutanecarbonyl)piperazin-1-yl]-2-methoxy-anilino]-N-[1-(2-methoxyethyl)-3,5-dimethyl-pyrazol-4-yl]-5,6-dihydropyrimido[4,5-e]indolizine-7-carboxamide] | 50 to 150 nM
18 | COc1cc(N2CCN(C)CC2)ccc1Nc1ncc2c(n1)-n1ccc(C(=O)Nc3c(C)cccc3C#N)c1CC2 [Example 133, N-(2-cyano-6-methyl-phenyl)-2-[2-methoxy-4-(4-methylpiperazin-1-yl)anilino]-5,6-dihydropyrimido[4,5-e]indolizine-7-carboxamide] | < 50 nM
19 | CCc1cccc(CC)c1NC(=O)c1ccn2c1CCc1cnc(Nc3ccc(N(C)CCCN(C)C)cc3OC)nc1-2 [Example 134, N-(2,6-diethylphenyl)-2-[4-[3-(dimethylamino)propyl-methyl-amino]-2-methoxy-anilino]-5,6-dihydropyrimido[4,5-e]indolizine-7-carboxamide] | < 50 nM
20 | COCCOCCOCCn1nc(C)c(NC(=O)c2ccn3c2CCc2cnc(Nc4ccc(N(C)CCCN(C)C)cc4OC)nc2-3)c1C [Example 135, 2-[4-[3-(Dimethylamino)propyl-methyl-amino]-2-methoxy-anilino]-N-[1-[2-[2-(-2-methoxyethoxy)ethoxy]ethyl]-3,5-dimethyl-pyrazol-4-yl]-5,6-dihydropyrimido[4,5-e]indolizine-7-carboxamide] | < 50 nM
